The assay addresses T1, Axl enzyme (Homo sapiens, UniProt P30530).
T1 construct: a solution containing 400 ng/mL Axl enzyme was prepared
T1 sequence (P30530 26-894): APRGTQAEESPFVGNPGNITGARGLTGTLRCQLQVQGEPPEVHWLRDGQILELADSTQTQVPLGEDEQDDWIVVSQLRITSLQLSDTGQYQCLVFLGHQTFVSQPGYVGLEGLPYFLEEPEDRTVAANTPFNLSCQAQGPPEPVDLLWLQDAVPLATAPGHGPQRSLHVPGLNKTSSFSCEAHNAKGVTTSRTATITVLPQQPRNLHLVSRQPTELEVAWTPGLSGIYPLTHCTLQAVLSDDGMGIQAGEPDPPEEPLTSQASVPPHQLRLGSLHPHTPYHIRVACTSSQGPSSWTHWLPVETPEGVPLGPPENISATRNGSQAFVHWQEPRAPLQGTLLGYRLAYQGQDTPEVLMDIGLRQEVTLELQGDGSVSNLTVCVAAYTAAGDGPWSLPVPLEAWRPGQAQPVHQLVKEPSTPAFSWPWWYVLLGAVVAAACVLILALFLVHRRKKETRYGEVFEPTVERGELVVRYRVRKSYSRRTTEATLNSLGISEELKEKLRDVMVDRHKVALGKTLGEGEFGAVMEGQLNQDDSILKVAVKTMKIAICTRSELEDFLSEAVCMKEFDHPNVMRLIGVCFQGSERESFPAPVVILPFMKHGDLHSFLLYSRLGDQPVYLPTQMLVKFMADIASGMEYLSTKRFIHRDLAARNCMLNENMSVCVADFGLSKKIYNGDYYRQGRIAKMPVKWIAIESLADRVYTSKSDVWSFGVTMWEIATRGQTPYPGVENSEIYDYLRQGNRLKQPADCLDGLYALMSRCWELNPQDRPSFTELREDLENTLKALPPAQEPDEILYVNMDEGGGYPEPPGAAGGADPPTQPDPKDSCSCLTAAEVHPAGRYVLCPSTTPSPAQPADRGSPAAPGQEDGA
Description: Measurement of an Axl inhibitory activity (LanthaScreen TR-FRET, in vitro test). It is filed as biochemical. Here is the method: Biological Example 1: Measurement of an Axl Inhibitory Activity (In Vitro Test)
An Axl enzyme inhibitory activity was measured by using LanthaScreen (registered trademark) system (Invitrogen) based on the attached instruction. The reagents used are shown below.
Reaction buffer solution: a solution containing 50 mmol/L HEPES (pH7.5), 0.01% Brij35, 10 mmol/L MgCl2 and 1 mmol/L EGTA was prepared by using purified water.
Test substance solution: a solution containing a test compound of 5-fold concentration with respect to the final concentration was prepared by 20-fold diluting a DMSO solution of test compound of each concentration with the reaction buffer solution.
Enzyme solution: a solution containing 400 ng/mL Axl enzyme was prepared by using the reaction buffer solution.
Substrate solution: a solution containing 45 μmmol/L ATP and 500 nmmol/L Fluorescein-Poly GT (Invitrogen) was prepared by using the reaction buffer solution.
Detection solution: a solution containing 20 mM EDTA and 4 nM PY20 (Invitrogen) was prepared by using Dilution B (Invitrogen).
A 10 mmol/L DMSO solution of the test compound was dispensed into a 96-well plate (Nunc), and, furthermore, a 3-fold dilution series was prepared using DMSO. In each well of the 96-well plate for measurement, 5 μL each of the reaction buffer solution containing DMSO was added to a Blank group and a medium group, and 5 μL of the test substance solution was added to the test substance group, respectively. Next, 10 μL/well of the reaction buffer solution was added to the Blank group, and 10 μL/well each of the enzyme solution was added to the medium group and the test compound group, followed by stirring at room temperature for 10 min. After the completion of stirring, 10 μL each of the substrate solution was added into each well, followed by stirring at room temperature with light shielded for one hour. After the completion of reaction, 25 μL each of the detection solution was added to each well, and stood still at room temperature with light shielded for 30 min. After standing sill, fluorescence intensity at 520 nm and 495 nm at the time of irradiation with exciting light of 340 nm was measured by using Analyst GT (Molecular Devices). The phosphorylation of the artificial substrate was quantified by Time-resolved Fluorescence Resonance Energy Transfer (TR-FRET). TR-FRET ratio was calculated by dividing 520 nm fluorescence signal by 495 nm fluorescence signal for each well, and the inhibition rate (%) in the test compound group was calculated based on the following mathematical formula. Inhibition rate (%)=[1−(TR-FRET ratio of test compound group−A)/(B−A)×100 [Math. 1] A: average value of TR-FRET ratios of Blank group B: average value of TR-FRET ratios of medium group
Values of 50% inhibition rate (IC50 values) of the test compound were calculated from the inhibition curve based on the inhibition rate of the test compounds in each concentration.
In general terms: TR-FRET usually uses a lanthanide donor and a delayed reading to cut background.

The structures appear in SMILES notation.

`COc1cc2nccc(Oc3ccc(NC(=O)c4cc5c(n(-c6ccccc6)c4=O)CCCC5=O)c(C)c3)c2cc1OC` [Example 23(2), N-{4-[(6,7-dimethoxy-4-quinolinyl)oxy]-2-methylphenyl}-2,5-dioxo-1-phenyl-1,2,5,6,7,8-hexahydro-3-quinolinecarboxamide] yielded an IC50 of 1.1 nM.

The molecule `COc1cc2nccc(Oc3ccc(NC(=O)c4cc5c(n(-c6ccccc6)c4=O)CC(C)(C)CC5=O)nc3)c2cc1OC` [Example 5(1), N-{5-[(6,7-dimethoxy-4-quinolinyl)oxy]-2-pyridinyl}-7,7-dimethyl-2,5-dioxo-1-phenyl-1,2,5,6,7,8-hexahydro-3-quinolinecarboxamide] registered an IC50 of 5.6 nM.

`COc1cc2nccc(Oc3ccc(NC(=O)c4cc5c(n(-c6ccccc6)c4=O)CCCC5=O)nc3)c2cc1OC` [Example 5, N-{5-[(6,7-dimethoxy-4-quinolinyl)oxy]-2-pyridinyl}-2,5-dioxo-1-phenyl-1,2,5,6,7,8-hexahydro-3-quinolinecarboxamide] showed an IC50 of 2.2 nM.

In the case of `O=C1CCCc2c1cc(C(=O)Nc1ccc(Oc3ccnc4cc(OCCCN5CCOCC5)ccc34)cn1)c(=O)n2-c1ccccc1` [Example 17(2), N-[5-({7-[3-(4-morpholinyl)propoxy]-4-quinolinyl}oxy)-2-pyridinyl]2,5-dioxo-1-phenyl-1,2,5,6,7,8-hexahydro-3-quinolinecarboxamide], the IC50 amounted to 4.4 nM.

A word on the IC50: it is the point on the concentration scale where inhibition reaches its midpoint. Low readings indicate inhibition by little substance, high ones a need for much substance.

For the origin of these results see patent publication US10676462B2, “Quinoline derivative” (ONO PHARMACEUTICAL CO., LTD., priority 2013, dated 2020).
